Some test systems named below: Malme-3M; A498; OVCAR-4; RXF 393; SK-MEL-5; M14; OVCAR-3; NCI-H226; MDA-MB-231; SF-539; HL-60; IGROV-1; NCI-H460; UO-31; HCT-15; PC-3; COLO 205; U-251; HT-29; RPMI-8226.
What all share (test): NCI anticancer screen, dose series, 48 h

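Cultured in 96-well plates, cells were exposed to test compound for 48 hours across five concentrations. At the GI50, growth is halved.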 Activity calls are given as the source filed them. No stated cut-off is given here; in the data, active = GI50 up to about 1.1 µM and inactive = higher. Bounds are passed on as bounds.

`C=C1C2CC3CCC2C(OC(=O)c2ccccc2C(=O)O)C13` (stereo not given): the GI50 with Malme-3M, in the experiment with A498, with OVCAR-4, with RXF 393, in the experiment on SK-MEL-5 and with M14 was > 100 µM (inactive) in each case. For the same molecule, the GI50 was 95.9 µM (inactive) in the experiment on OVCAR-3; > 100 µM (inactive) with NCI-H226; > 100 µM (inactive) in the experiment with MDA-MB-231; > 100 µM (inactive) with SF-539; > 100 µM (inactive) with HL-60; > 100 µM (inactive) in the experiment on IGROV-1. For the same molecule, the GI50 in the experiment on NCI-H460 was > 100 µM (inactive); in the experiment on UO-31, > 100 µM (inactive); in the experiment on HCT-15, more than 100 µM; in the experiment on PC-3, > 100 µM (inactive); in the experiment with COLO 205, > 100 µM (inactive); in the experiment with U-251, > 100 µM (inactive). Besides, in the experiment with HT-29, the GI50 is > 100 µM (inactive).
With `C[C@@H](NC(=O)[C@@H]1C[C@]1(C)COC(=O)c1cc([N+](=O)[O-])cc([N+](=O)[O-])c1)c1cccc2ccccc12`, the GI50 with Malme-3M is 6.87 µM (inactive); with A498, > 100 µM (inactive); with OVCAR-4 it was > 100 µM (inactive); with RXF 393, 12.6 µM (inactive); with SK-MEL-5, > 100 µM (inactive); with M14 it was > 100 µM (inactive). Further, the GI50 in the experiment on OVCAR-3 was 24.3 µM (inactive); with NCI-H226, > 100 µM (inactive); in the experiment on MDA-MB-231, > 100 µM (inactive); in the experiment with RPMI-8226, > 100 µM (inactive); in the experiment on IGROV-1 it was 70.3 µM (inactive); with NCI-H460 it was > 100 µM (inactive). Also, the GI50 with UO-31 was > 100 µM (inactive); with HCT-15, more than 100 µM; in the experiment on PC-3 it was > 100 µM (inactive); in the experiment on COLO 205, > 100 µM (inactive); in the experiment with U-251 it was 99.3 µM (inactive); with HT-29, 52.2 µM (inactive).
Consider `O=c1[nH]nc(Cc2ccccc2)n1/N=C/c1c[nH]c2ccccc12`, for which the GI50 is 57.1 µM (inactive) in the experiment with Malme-3M; > 100 µM (inactive) with A498; 42.5 µM (inactive) in the experiment on OVCAR-4; > 100 µM (inactive) in the experiment with SK-MEL-5; > 100 µM (inactive) with M14; > 100 µM (inactive) in the experiment on OVCAR-3. The GI50 in the experiment with NCI-H226 was > 100 µM (inactive); with MDA-MB-231 it was 59 µM (inactive); in the experiment on SF-539, > 100 µM (inactive); with HL-60, > 100 µM (inactive); in the experiment on RPMI-8226, > 100 µM (inactive); in the experiment with IGROV-1 it was > 100 µM (inactive). For the same molecule, the GI50 was > 100 µM (inactive) in the experiment with NCI-H460; > 100 µM (inactive) in the experiment with UO-31; more than 100 µM in the experiment with HCT-15; 92 µM (inactive) with PC-3; > 100 µM (inactive) in the experiment with COLO 205; 52.1 µM (inactive) in the experiment with U-251. Also, the GI50 in the experiment on HT-29 is 71.6 µM (inactive).
For `Oc1[nH]c(Nc2cccc(CC(F)(F)F)c2)nc2ncnc1-2`, the GI50 in the experiment with Malme-3M, with A498, in the experiment on OVCAR-4, in the experiment with SK-MEL-5, with M14 and with OVCAR-3 was > 100 µM (inactive) each time. Moreover, the GI50 with NCI-H226, in the experiment on MDA-MB-231, with SF-539, in the experiment on HL-60, in the experiment on RPMI-8226 and in the experiment with IGROV-1 was > 100 µM (inactive) throughout. The GI50 in the experiment on NCI-H460 was > 100 µM (inactive); with UO-31, > 100 µM (inactive); in the experiment with HCT-15, more than 100 µM; with PC-3 it was > 100 µM (inactive); with COLO 205, > 100 µM (inactive); with U-251, > 100 µM (inactive). Also, in the experiment on HT-29, the GI50 was > 100 µM (inactive).
As for `Cn1c(=O)c2nc(CSCc3ccccc3)[nH]c2n(C)c1=O`, the GI50 was > 100 µM (inactive) in the experiment on Malme-3M; > 100 µM (inactive) in the experiment on A498; > 100 µM (inactive) with OVCAR-4; > 100 µM (inactive) in the experiment on RXF 393; 71.6 µM (inactive) with SK-MEL-5; > 100 µM (inactive) in the experiment with M14. The GI50 in the experiment on OVCAR-3 is > 100 µM (inactive); in the experiment on NCI-H226 it was > 100 µM (inactive); in the experiment on MDA-MB-231, > 100 µM (inactive); in the experiment on SF-539, > 100 µM (inactive); with RPMI-8226, 67.6 µM (inactive); in the experiment with IGROV-1 it was > 100 µM (inactive). For the same molecule, the GI50 was > 100 µM (inactive) with NCI-H460; 41.1 µM (inactive) with UO-31; more than 100 µM in the experiment on HCT-15; > 100 µM (inactive) with PC-3; > 100 µM (inactive) in the experiment on COLO 205; > 100 µM (inactive) in the experiment with U-251. Moreover, in the experiment on HT-29, the GI50 is 71.4 µM (inactive).
For the molecule `CC(=O)N1N=C(c2ccc3ccccc3c2O)CC1c1ccc(N(C)C)cc1` (stereo not given), the GI50 in the experiment on Malme-3M, in the experiment on A498, in the experiment with OVCAR-4, with RXF 393, with SK-MEL-5 and with M14 was > 100 µM (inactive) throughout. Moreover, the GI50 in the experiment with OVCAR-3, in the experiment with NCI-H226, in the experiment with MDA-MB-231, with SF-539, in the experiment on RPMI-8226 and in the experiment with IGROV-1 was > 100 µM (inactive) each time. Also, the GI50 was > 100 µM (inactive) in the experiment with NCI-H460; > 100 µM (inactive) with UO-31; more than 100 µM in the experiment with HCT-15; > 100 µM (inactive) in the experiment with PC-3; > 100 µM (inactive) in the experiment on COLO 205; > 100 µM (inactive) with U-251. In the experiment on HT-29, the GI50 is > 100 µM (inactive).
Take `C=CC[C@H](C)CCC(=O)N1[C@H]2CC3CC[C@@]2(CS1(=O)=O)C3(C)C`: the GI50 in the experiment on Malme-3M was 46.8 µM (inactive); in the experiment on A498, > 100 µM (inactive); in the experiment on OVCAR-4, 39.5 µM (inactive); in the experiment with RXF 393 it was 49 µM (inactive); in the experiment on SK-MEL-5, 21.5 µM (inactive); in the experiment with M14, 35.6 µM (inactive). The GI50 is 51.5 µM (inactive) in the experiment on NCI-H226; > 100 µM (inactive) in the experiment with MDA-MB-231; 25.1 µM (inactive) in the experiment with HL-60; 39.9 µM (inactive) in the experiment on RPMI-8226; > 100 µM (inactive) with IGROV-1; 30.5 µM (inactive) with NCI-H460. The GI50 in the experiment on UO-31 is 40.7 µM (inactive); in the experiment on HCT-15 it was 25.5 µM; in the experiment with PC-3 it was 40.3 µM (inactive); with COLO 205 it was 34.3 µM (inactive); with U-251 it was 56.1 µM (inactive); with HT-29, 18.8 µM (inactive).
Turning to `CC(=O)/C=c1\[nH]/c(=C\C=C\c2ccccc2)c(=O)n1/C=C1\C(=O)Oc2ccccc2C1=O`, the GI50 in the experiment with Malme-3M is > 100 µM (inactive); in the experiment on A498, 15.3 µM (inactive); with OVCAR-4, > 100 µM (inactive); in the experiment on SK-MEL-5 it was > 100 µM (inactive); in the experiment with M14, > 100 µM (inactive); with OVCAR-3, > 100 µM (inactive). For the same molecule, the GI50 with NCI-H226, in the experiment with MDA-MB-231, in the experiment with SF-539, in the experiment with HL-60, in the experiment with RPMI-8226 and in the experiment on IGROV-1 was > 100 µM (inactive) throughout. For the same molecule, the GI50 with UO-31 was > 100 µM (inactive); in the experiment with HCT-15, more than 100 µM; in the experiment on PC-3 it was > 100 µM (inactive); in the experiment with COLO 205, > 100 µM (inactive); in the experiment on U-251, > 100 µM (inactive); with HT-29, > 100 µM (inactive).
With `CC(C)c1cc(CN(C)C)c(O)c(C(C)(C)C)c1`, the GI50 was 22.2 µM (inactive) in the experiment on Malme-3M; 20.7 µM (inactive) with A498; 28.8 µM (inactive) in the experiment with OVCAR-4; 18.8 µM (inactive) in the experiment with RXF 393; 14.9 µM (inactive) in the experiment on SK-MEL-5; 28.4 µM (inactive) with M14. The GI50 in the experiment on OVCAR-3 is 17.4 µM (inactive); in the experiment on NCI-H226, 21.5 µM (inactive); in the experiment with MDA-MB-231, 36.2 µM (inactive); in the experiment on HL-60 it was 6.04 µM (inactive); in the experiment on RPMI-8226, 13.9 µM (inactive); with IGROV-1, 47.1 µM (inactive). For the same molecule, the GI50 is 17.3 µM (inactive) in the experiment on NCI-H460; 23.1 µM (inactive) in the experiment with UO-31; 23.7 µM in the experiment with HCT-15; 21.6 µM (inactive) in the experiment with PC-3; 20.7 µM (inactive) in the experiment on COLO 205; 16.4 µM (inactive) in the experiment on U-251. In the experiment on HT-29, the GI50 was 36.2 µM (inactive).
For the molecule `NC(Cc1c[nH]c2ccc([N+](=O)[O-])cc12)C(=O)O` (stereo not given), the GI50 in the experiment with Malme-3M, in the experiment on A498, in the experiment on OVCAR-4, in the experiment with RXF 393, in the experiment with SK-MEL-5 and in the experiment with M14 was > 100 µM (inactive) each time. Further, the GI50 in the experiment with OVCAR-3, in the experiment with NCI-H226, in the experiment with MDA-MB-231, in the experiment on HL-60, in the experiment with RPMI-8226 and in the experiment with IGROV-1 was > 100 µM (inactive) in each case. The GI50 with UO-31 is > 100 µM (inactive); in the experiment with HCT-15, more than 100 µM; in the experiment on PC-3, > 100 µM (inactive); in the experiment with COLO 205, > 100 µM (inactive); in the experiment on U-251, > 100 µM (inactive); with HT-29, > 100 µM (inactive).
For `N#CC(C#N)=CNCCN1CCN(C=C(C#N)C#N)CC1`, the GI50 in the experiment with Malme-3M, in the experiment with A498, in the experiment on OVCAR-4, in the experiment with SK-MEL-5, in the experiment with M14 and in the experiment with OVCAR-3 was > 100 µM (inactive) each time. The GI50 with NCI-H226, with MDA-MB-231, in the experiment with SF-539, in the experiment on HL-60, with RPMI-8226 and in the experiment on IGROV-1 was > 100 µM (inactive) each time. The GI50 in the experiment on NCI-H460 is > 100 µM (inactive); in the experiment on UO-31 it was > 100 µM (inactive); in the experiment with HCT-15, more than 100 µM; in the experiment with PC-3 it was > 100 µM (inactive); in the experiment with COLO 205, > 100 µM (inactive); in the experiment with U-251, > 100 µM (inactive). In addition, the GI50 in the experiment with HT-29 is > 100 µM (inactive).

The values are drawn from ChEMBL document CHEMBL1201862, “PubChem BioAssay data set” (2004).
